Assay results taken from patent publication US20150265682A1, “THERAPEUTIC METHODS AND COMPOSITIONS FOR TREATING DIABETES” (Orient Europharma Co., Ltd., priority 2014, published 2015).

Legend:
[1] = test system: non-diabetic and T2DM mice; test: Oral glucose tolerance test (OGTT) with borapetoside C; assay type: in vivo, ICR mice; settings: 5 mg/kg
Description: This study was conducted following the University ethical guidelines on animal experimentation and complied with the Guide for the Care and Use of Laboratory Animals published by the US National Institutes of Health (NIH publication no. 85-23, revised 1996). The animal facility was well controlled for temperature (22±1° C.), and humidity (60±5%) and a 12 h/12 h light-dark cycle was maintained with access to food and water ad libitum. Four-week-old male ICR mice were acquired from BioLasco Taiwan Co., Ltd. and maintained at College of Medicine Experimental Animal Center, National Taiwan University. The study was conducted on 8-10 week-old male ICR mice.
(§1) T1DM mice were induced by a known method. In brief, an intraperitoneal injection of streptozotocin (STZ; Sigma Chemical Co.; St. Louis, Mo.) at 150 mg/kg was performed in mice that were fasted for 48 h. The induction of T1DM was assessed and confirmed when the mice had plasma glucose levels ≧350 mg/dL, accompanied with polyuria, hyperphagia and decreased body weight. The control mice group received an injection of vehicle and then carried out for 4 weeks. T2DM mice were induced by maintaining on a fat-rich chow diet and fructose-sweetened water for 4 weeks from the age of 4-5 weeks according to previous methods. The induction T2DM mice were assessed by measuring fasting plasma glucose levels and confirmed when plasma glucose level was ≧150 mg/dL after a 4-week induction.
(§2) Blood samples were collected from the orbital vascular plexus of mice under anesthesia with sodium pentobarbital (80 mg/kg, intraperitoneal, Sigma Chemical Co., St. Louis, Mo., USA). Blood samples were then centrifuged at 13000 rpm for 5 min, and the plasma was kept on ice prior to the assay. The plasma glucose concentration was measured using commercial kits following manufacturer's instructions (BioSystems S. A., Barcelona, Spain).
To perform OGTT, mice were fasted overnight, divided into 2 groups and then administered a vehicle control and 5 mg/kg borapetoside C. This was followed by administration of a glucose solution at 2 g/kg via tube feeding. Blood samples were withdrawn from the orbital vascular plexus at intervals of 30, 60, 120, and 150 min after glucose administration. For the ITT, mice were fasted for 3 h. Human insulin (Insulin Actrapid) HM; Novo Nordisk, Denmark) was injected intraperitoneally after an intraperitoneal administration of 0.1 mg/kg borapetoside C for 30 min. Blood samples were collected from the orbital vascular plexus at the timed intervals mentioned above.

[2] = test system: non-diabetic, T1DM and T2DM mice; test: Plasma glucose after bolus intraperitoneal borapetoside C; assay type: in vivo, ICR mice
Description: as §1, §2

[3] = test system: human hepatocellular carcinoma cell line, Hep3B; test: Glycogen content assay in Hep3B cells; assay type: cell-based; settings: 30 minutes
Description: The C2C12 skeletal muscle cells were cultured in Dulbecco's modified Eagle's medium (DMEM; Gibco/Invitrogen, Carlsbad, Calif.), and the human hepatocellular carcinoma cell line, Hep3B, was cultured in Roswell Park Memorial Institute medium 1640 (RPMI 1640 medium; Gibco/Invitrogen, Carlsbad, Calif.). Cells were cultured at 37° C. in the humidified incubator supplied with 5% CO2. Culture mediums were supplemented with 4.5 mgmL^−1 glucose, penicillin 100 IUmL^−1, streptomycin 100 μgmL^−1 and 10% fetal bovine serum (Gibco/Invitrogen, Carlsbad, Calif.). Only C2C12 cells were then switched to 2% horse serum for 3 days after reaching the 70% confluence. Myotubes formation was achieved after 4 days of incubation, and the cells were used for subsequent experiments. Culture mediums were replaced by serum free DMEM or RPMI for 24 h before experiments (see e.g., procedure described in Sultan et al., 2006).
C2C12 and Hep3B cells were treated with 1 nM insulin, 100 μM metformin, and the assigned concentration of borapetoside A for 30 minutes. To develop the insulin resistance state of cells, C2C12 cells were incubated with IL-6 at 20 ngmL^−1 for 1 hour. Later, the cells were treated with 1 nM insulin, 100 μM metformin, and the assigned concentration of borapetoside A for 30 minutes. After the assigned treatment, cells were washed twice with phosphate buffered saline (PBS). Glycogen content was measured as previously described, with some modifications (see e.g., Savage et al., 2008). The protein concentrations of the cell lysates were determined by using Pierce BCA Protein Assay Kit (Thermo-Scientific, Rockford, Ill.). The glycogen content of each sample was normalized by total protein.

Row | Compound | basal plasma glucose concentration in OGTT ([1]; T2DM mice) [mg/dL] | decrease of area under the curve (AUC) in OGTT vs vehicle-treated group ([1]; T2DM mice) [%] | plasma glucose levels at 60, 120 and 150 min vs vehicle-treated mice ([1]; T2DM mice) | plasma glucose concentration sixty min after oral glucose administration ([1]; T2DM mice, glucose 2 g/kg) [mg/dL] | basal plasma glucose concentration in OGTT ([1]; non-diabetic mice) [mg/dL] | plasma glucose levels at 120 min and 150 min vs vehicle-treated mice ([1]; non-diabetic mice) | plasma glucose concentration at 60 min after oral administration of glucose ([1]; non-diabetic mice, glucose 2 g/kg) [mg/dL] | decrease of area under the curve (AUC) in OGTT vs vehicle-treated group ([1]; normal mice) [%] | plasma glucose concentrations ([2]; bolus i.p. 0.5 to 5 mg/kg, non-diabetic, T1DM and T2DM mice) | plasma glucose levels ([2]; borapetoside C at 0.1 mg/kg alone) | fold increase of glycogen content ([3]; 10^−5 mol/L) [fold] | fold increase of glycogen content ([3]; 10^−6 mol/L) [fold] | fold increase of glycogen content ([3]; 10^−7 mol/L) [fold]
1 | COC(=O)C1=CCC[C@H]2[C@]3(C)C[C@@H](c4ccoc4)OC(=O)[C@@H]3C[C@@H](O[C@@H]3O[C@H](CO)[C@@H](O)[C@H](O)[C@H]3O)[C@@]12C [Borapetoside C, borapetoside C] | 206.8 ± 19.0 | 16 | significantly lower | 338.2 ± 24.5 | 115 ± 3.5 | significantly lower | 312.8 ± 21.3 | 22 | significantly lowered plasma glucose concentrations in a dose-dependent manner | did not alter the plasma glucose levels |  |  | 
2 | C[C@@]12C[C@@H](c3ccoc3)OC(=O)[C@@H]1C[C@@H]1OC(=O)[C@@]3(O)[C@@H](O[C@@H]4O[C@H](CO)[C@@H](O)[C@H](O)[C@H]4O)CC[C@@H]2[C@@]13C [Borapetoside A, borapetoside A] |  |  |  |  |  |  |  |  |  |  | 1.54±0.11 | 1.39±0.12 | 1.46±0.05
